Assay results from patent US10168342B2, “Lipid probes and uses thereof” (THE SCRIPPS RESEARCH INSTITUTE, priority 2015, dated 2019).

How the values were obtained:
Assay in all cases: isoTOP-ABPP mapping of AEA-DA-modified peptides in Neuro2a cells
Format in all cases: cell-based
[1] = biological target: T1, AEA-DA-modified peptides in Neuro2a cells (Mus musculus, UniProt P56812); details: AEA-DA-modified peptide PDCD5 P56812 69-80, SEQ ID NO 80; probe 100 μM, 12 replicates
T1 construct: endogenous in cells; host or cells: Neuro2a
T1 sequence (P56812 whole entry): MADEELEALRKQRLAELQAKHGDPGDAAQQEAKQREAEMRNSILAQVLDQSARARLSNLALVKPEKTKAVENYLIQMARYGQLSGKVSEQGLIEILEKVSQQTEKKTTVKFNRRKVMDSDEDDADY

[2] = biological target: T2, AEA-DA-modified peptides in Neuro2a cells (Mus musculus, UniProt O08579); details: AEA-DA-modified peptide EMD O08579 176-205, SEQ ID NO 37; probe 100 μM, 12 replicates
T2 construct: endogenous in cells; host or cells: Neuro2a
T2 sequence (O08579 whole entry): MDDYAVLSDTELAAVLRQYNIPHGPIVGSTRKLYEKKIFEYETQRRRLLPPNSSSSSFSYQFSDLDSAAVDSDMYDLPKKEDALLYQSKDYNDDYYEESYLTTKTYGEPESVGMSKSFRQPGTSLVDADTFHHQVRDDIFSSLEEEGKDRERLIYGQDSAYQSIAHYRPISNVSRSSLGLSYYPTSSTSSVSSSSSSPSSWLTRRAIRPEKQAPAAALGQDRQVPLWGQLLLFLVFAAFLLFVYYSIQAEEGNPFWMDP

[3] = biological target: T3, AEA-DA-modified peptides in Neuro2a cells (Mus musculus, UniProt Q8BMK4); details: AEA-DA-modified peptide CKAP4 Q8BMK4 292-307, SEQ ID NO 23; probe 100 μM, 12 replicates
T3 construct: endogenous in cells; host or cells: Neuro2a
T3 sequence (Q8BMK4 whole entry): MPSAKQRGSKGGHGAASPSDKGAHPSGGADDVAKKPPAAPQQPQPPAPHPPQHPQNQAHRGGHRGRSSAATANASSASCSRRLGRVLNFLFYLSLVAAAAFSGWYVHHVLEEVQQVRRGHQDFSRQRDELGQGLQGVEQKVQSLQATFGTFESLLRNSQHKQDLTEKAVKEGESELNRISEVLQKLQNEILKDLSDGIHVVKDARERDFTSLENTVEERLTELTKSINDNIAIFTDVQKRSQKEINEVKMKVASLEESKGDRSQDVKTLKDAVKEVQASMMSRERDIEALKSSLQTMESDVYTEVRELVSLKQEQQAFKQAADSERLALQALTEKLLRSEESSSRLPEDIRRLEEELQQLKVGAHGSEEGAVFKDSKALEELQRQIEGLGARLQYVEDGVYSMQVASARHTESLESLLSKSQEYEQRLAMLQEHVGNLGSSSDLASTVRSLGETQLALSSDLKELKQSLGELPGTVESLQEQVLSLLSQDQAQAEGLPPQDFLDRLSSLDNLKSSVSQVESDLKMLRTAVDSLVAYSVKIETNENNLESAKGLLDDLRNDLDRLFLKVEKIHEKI

[4] = biological target: T4, AEA-DA-modified peptides in Neuro2a cells (Mus musculus, UniProt P42208); details: AEA-DA-modified peptide SEPT2 P42208 78-92, SEQ ID NO 98; probe 100 μM, 12 replicates
T4 construct: endogenous in cells; host or cells: Neuro2a
T4 sequence (P42208 whole entry): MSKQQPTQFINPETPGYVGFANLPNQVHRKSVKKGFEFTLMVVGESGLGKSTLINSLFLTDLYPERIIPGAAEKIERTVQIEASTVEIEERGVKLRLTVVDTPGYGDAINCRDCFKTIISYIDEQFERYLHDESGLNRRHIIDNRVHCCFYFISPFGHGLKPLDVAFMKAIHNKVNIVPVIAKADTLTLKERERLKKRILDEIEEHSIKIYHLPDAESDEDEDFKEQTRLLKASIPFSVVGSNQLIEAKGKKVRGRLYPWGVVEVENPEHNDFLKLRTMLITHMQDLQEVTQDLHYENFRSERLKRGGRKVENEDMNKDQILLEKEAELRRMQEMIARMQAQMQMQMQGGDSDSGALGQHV

[5] = biological target: T5, AEA-DA-modified peptides in Neuro2a cells (Mus musculus, UniProt Q9QUM9); details: AEA-DA-modified peptide PSMA6 Q9QUM9 103-117, SEQ ID NO 89; probe 100 μM, 12 replicates
T5 construct: endogenous in cells; host or cells: Neuro2a
T5 sequence (Q9QUM9 whole entry): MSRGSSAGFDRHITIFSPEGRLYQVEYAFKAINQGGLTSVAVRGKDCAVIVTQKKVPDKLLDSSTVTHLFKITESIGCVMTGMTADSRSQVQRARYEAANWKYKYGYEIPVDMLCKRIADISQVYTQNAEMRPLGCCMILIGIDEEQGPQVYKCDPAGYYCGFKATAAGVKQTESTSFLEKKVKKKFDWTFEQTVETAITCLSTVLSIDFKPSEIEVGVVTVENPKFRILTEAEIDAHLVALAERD

[6] = biological target: T6, AEA-DA-modified peptides in Neuro2a cells (Mus musculus, UniProt Q60716); details: AEA-DA-modified peptide P4HA2 Q60716 177-197, SEQ ID NO 76; probe 100 μM, 12 replicates
T6 construct: endogenous in cells; host or cells: Neuro2a
T6 sequence (Q60716 24-537): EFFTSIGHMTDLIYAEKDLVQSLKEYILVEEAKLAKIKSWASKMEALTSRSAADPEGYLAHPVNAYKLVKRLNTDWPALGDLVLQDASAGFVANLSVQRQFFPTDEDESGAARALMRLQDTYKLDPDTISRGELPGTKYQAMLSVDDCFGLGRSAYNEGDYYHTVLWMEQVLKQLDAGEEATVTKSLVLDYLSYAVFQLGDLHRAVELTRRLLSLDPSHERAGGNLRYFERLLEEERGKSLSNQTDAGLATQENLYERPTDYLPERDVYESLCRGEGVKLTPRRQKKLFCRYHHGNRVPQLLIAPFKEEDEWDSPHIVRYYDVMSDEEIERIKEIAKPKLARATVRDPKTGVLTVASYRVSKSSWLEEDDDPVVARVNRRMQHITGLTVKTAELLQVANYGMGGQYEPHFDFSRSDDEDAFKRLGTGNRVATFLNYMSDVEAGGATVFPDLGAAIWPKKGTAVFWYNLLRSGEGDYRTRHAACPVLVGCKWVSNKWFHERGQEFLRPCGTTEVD

[7] = biological target: T7, AEA-DA-modified peptides in Neuro2a cells (Mus musculus, UniProt P61759); details: AEA-DA-modified peptide VBP1 P61759 153-178, SEQ ID NO 119; probe 100 μM, 12 replicates
T7 construct: endogenous in cells; host or cells: Neuro2a
T7 sequence (P61759 whole entry): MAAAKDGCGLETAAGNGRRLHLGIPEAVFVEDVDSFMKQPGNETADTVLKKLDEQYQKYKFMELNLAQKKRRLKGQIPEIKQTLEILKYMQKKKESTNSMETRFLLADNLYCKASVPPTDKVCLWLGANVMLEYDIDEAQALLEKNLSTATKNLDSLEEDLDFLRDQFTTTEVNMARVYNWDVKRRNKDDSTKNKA

[8] = biological target: T8, AEA-DA-modified peptides in Neuro2a cells (Mus musculus, UniProt P48678); details: AEA-DA-modified peptide LMNA P48678 281-297, SEQ ID NO 55; probe 100 μM, 12 replicates
T8 construct: endogenous in cells; host or cells: Neuro2a
T8 sequence (P48678 whole entry): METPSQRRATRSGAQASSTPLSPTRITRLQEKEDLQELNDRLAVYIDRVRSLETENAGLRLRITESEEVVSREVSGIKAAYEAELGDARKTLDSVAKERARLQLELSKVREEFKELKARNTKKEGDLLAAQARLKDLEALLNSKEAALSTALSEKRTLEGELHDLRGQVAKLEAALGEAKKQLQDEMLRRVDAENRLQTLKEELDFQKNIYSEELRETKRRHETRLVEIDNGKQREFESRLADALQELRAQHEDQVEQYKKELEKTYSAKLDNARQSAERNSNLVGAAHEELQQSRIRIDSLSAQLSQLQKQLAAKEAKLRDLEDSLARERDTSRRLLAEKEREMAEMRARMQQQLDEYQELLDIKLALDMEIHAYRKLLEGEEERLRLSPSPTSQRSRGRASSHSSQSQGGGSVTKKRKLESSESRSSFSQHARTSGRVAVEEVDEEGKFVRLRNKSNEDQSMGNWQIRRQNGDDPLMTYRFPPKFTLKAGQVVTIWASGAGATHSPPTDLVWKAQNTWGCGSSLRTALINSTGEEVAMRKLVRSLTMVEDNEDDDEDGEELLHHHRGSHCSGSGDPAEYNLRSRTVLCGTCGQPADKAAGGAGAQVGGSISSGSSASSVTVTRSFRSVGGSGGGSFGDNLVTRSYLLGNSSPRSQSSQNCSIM

[9] = biological target: T9, AEA-DA-modified peptides in Neuro2a cells (Mus musculus, UniProt P97311); details: AEA-DA-modified peptide MCM6 P97311 59-86, SEQ ID NO 59; probe 100 μM, 12 replicates
T9 construct: endogenous in cells; host or cells: Neuro2a
T9 sequence (P97311 whole entry): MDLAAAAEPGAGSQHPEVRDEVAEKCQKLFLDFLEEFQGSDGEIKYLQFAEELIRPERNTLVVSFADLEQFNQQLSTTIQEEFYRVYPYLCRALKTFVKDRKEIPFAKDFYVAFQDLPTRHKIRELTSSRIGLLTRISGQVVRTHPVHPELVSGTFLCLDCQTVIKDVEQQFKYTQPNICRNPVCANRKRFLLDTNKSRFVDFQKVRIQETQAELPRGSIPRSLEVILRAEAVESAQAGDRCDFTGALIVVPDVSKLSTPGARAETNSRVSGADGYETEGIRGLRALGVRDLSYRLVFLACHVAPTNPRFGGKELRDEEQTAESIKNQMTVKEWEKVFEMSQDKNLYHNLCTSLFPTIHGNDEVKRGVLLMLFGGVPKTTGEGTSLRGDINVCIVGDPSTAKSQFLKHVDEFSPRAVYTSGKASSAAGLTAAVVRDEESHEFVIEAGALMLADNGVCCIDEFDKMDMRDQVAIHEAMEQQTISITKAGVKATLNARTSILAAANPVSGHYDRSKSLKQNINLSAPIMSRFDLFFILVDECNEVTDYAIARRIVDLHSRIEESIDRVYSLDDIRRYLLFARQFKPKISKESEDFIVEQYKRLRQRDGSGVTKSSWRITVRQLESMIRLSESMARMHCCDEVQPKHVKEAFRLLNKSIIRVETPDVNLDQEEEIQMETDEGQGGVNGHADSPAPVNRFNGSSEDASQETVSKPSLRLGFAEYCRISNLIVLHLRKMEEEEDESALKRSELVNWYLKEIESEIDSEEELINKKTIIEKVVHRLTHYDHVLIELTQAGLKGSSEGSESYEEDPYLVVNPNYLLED

[10] = biological target: T10, AEA-DA-modified peptides in Neuro2a cells (Mus musculus, UniProt Q99LR1); details: AEA-DA-modified peptide ABHD12 Q99LR1 263-284, SEQ ID NO 1; probe 100 μM, 12 replicates
T10 construct: endogenous in cells; host or cells: Neuro2a
T10 sequence (Q99LR1 whole entry): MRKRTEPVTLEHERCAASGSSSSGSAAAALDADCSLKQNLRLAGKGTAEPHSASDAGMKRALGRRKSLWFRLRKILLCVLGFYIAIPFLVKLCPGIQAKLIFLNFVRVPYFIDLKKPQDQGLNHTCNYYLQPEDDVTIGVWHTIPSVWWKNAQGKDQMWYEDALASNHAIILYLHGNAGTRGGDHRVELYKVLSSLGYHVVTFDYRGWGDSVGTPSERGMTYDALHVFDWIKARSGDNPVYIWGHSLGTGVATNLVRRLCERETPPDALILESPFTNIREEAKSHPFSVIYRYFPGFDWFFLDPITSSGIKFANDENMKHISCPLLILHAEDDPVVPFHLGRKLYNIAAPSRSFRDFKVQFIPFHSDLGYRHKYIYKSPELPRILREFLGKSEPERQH

[11] = biological target: T11, AEA-DA-modified peptides in Neuro2a cells (Mus musculus, UniProt P47802); details: AEA-DA-modified peptide MTX1 P47802 89-104, SEQ ID NO 63; probe 100 μM, 12 replicates
T11 construct: endogenous in cells; host or cells: Neuro2a
T11 sequence (P47802 whole entry): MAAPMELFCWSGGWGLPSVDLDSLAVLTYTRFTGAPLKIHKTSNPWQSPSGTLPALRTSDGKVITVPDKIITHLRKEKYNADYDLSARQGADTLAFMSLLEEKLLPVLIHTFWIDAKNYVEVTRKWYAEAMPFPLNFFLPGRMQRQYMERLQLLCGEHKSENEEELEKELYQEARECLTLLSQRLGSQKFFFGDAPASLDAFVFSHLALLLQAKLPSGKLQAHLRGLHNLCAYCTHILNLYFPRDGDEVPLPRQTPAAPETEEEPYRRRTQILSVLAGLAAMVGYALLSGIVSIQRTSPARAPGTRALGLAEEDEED

[12] = biological target: T12, AEA-DA-modified peptides in Neuro2a cells (Mus musculus, UniProt P62259); details: AEA-DA-modified peptide YWHAE P62259 197-226, SEQ ID NO 121; probe 100 μM, 12 replicates
T12 construct: endogenous in cells; host or cells: Neuro2a
T12 sequence (P62259 whole entry): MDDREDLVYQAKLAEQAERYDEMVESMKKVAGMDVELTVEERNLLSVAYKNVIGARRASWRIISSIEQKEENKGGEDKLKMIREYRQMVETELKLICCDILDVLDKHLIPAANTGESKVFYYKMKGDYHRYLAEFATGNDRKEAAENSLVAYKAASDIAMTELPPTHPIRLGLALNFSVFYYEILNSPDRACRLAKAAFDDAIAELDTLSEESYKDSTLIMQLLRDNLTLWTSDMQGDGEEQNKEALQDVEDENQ

For C#CCCCC1(CC/C=C\C/C=C\C/C=C\CCCC(=O)NCCO)N=N1 [AEA-DA, (5Z,8Z,11Z)-N-(2-hydroxyethyl)-14-(3-(pent-4-yn-1-yl)-3H-diazirin-3-yl)tetradeca-5,8,11-trienamide], the Times observed [1] was 5, the Times observed [2] was 2 and the Times observed [3] was 7. It also gave a Times observed [4] of 2, a Times observed [5] of 8 and a Times observed [6] of 3. For the same compound, the Times observed [7] was 2, the Times observed [8] was 2 and the Times observed [9] was 3. For the same compound, the Times observed [10] was 2, the Times observed [11] was 2 and the Times observed [12] was 8.
